Test results published in patent US11897931B2, “MANP analogues” (Mayo Foundation for Medical Education and Research, priority 2016, dated 2024).
Read-outs that look alike come from different tables or passages of the source. Bridges are numbered along the chain shown (N, C = ends). Where no end group is shown, it is not given here. [ ]: non-standard residue; d: D form.

Assays:
normal dogs = details: cited from earlier work
[1] = system: Spontaneously hypertensive rats (SHRs); test: Acute IV MANP in spontaneously hypertensive rats: BP, plasma and urinary cGMP, natriuresis; type: in vivo, rat; details: acute IV administration
Procedure: FIGS. 2A-2E are a series of graphs plotting the effect of MANP, administered intravenously at the indicated doses, on mean arterial pressure (FIG. 2A), cGMP levels in plasma (FIG. 2B) and urine (FIG. 2C), distal tubule sodium reabsorption (FIG. 2D), and urinary sodium excretion (FIG. 2E) in spontaneously hypertensive rats.
Spontaneously hypertensive rats (SHRs) were injected with intravenous (IV) MANP or vehicle, and BP, plasma and urinary cGMP, and natriuretic effects were determined.

normal canine = test: In vivo MANP18 infusion study in a normal canine; details: normal dog
Procedure: FIGS. 5A-5G are graphs plotting the effect of MANP18 on mean arterial pressure (MAP; FIG. 5A), heart rate (FIG. 5B), pulmonary wedge capillary pressure (PWCP; FIG. 5C), cardiac output (FIG. 5D), renal blood flow (FIG. 5E), urine output (UV; FIG. 5F), and urinary sodium excretion (UNaV; FIG. 5G) in a normal dog. After a baseline (BL) clearance, MANP18 was infused with saline for a total of 45 minutes, which included a 15-minute lead-in period followed by a 30-minute clearance. After the peptide infusion was discontinued, and four, 30-minute clearances were performed [washout (Wo), recovery 1 (Rec1), recovery 2 (Rec2), and recovery 3 (Rec3)].
FIGS. 6A-6G are graphs plotting the effect of MANP18 on plasma cGMP levels (FIG. 6A), urinary cGMP excretion (FIG. 6B), plasma ANP levels (FIG. 6C), urinary ANP excretion (FIG. 6D), plasma aldosterone levels (FIG. 6E), plasma renin activity (PRA; FIG. 6F), and plasma angiotensin II levels (ANGII; FIG. 6G) in a normal dog. Experiments were conducted as described for FIGS. 5A-5G).
In vivo infusion studies were conducted using MANP18 in a normal canine. The night before the study, the dog was fasted. On the day of the experiment, the dog was anesthetized with pentobarbital sodium (15 mg/kg IV), intubated, and mechanically ventilated with supplemental oxygen (Harvard Respirator; Amersham, Mass.) at 12 cycles/minute. The femoral artery was cannulated for MAP monitoring and blood sampling, and the femoral vein was cannulated for saline infusion. Through a left lateral flank incision, the left kidney was exposed and the ureter was cannulated for urine sampling. Supplemental nonhypotensive doses of pentobarbital were administered as needed during the study. After 60 minutes of equilibrium, a baseline clearance was performed. All clearances consisted of urine collection over 30 minutes. Arterial blood sampling and hemodynamic measurements were measured midway through each clearance. After the baseline clearance, MANP18 was infused with saline at a dose of 33 pmol peptide/kg/min. The peptide was infused for a total of 45 minutes, which included a 15-minute lead-in period followed by a 30-minute clearance. The peptide infusion was then discontinued, and four 30-minute clearances were performed (washout, recovery 1, recovery 2, and recovery 3).

pGC-A = target: T1, pGC-A (Homo sapiens, UniProt P16066); test: cGMP generation in HEK293 cells overexpressing pGC-A; type: cell-based
T1 construct: host or cells: HEK293
T1 sequence (P16066 33-1061): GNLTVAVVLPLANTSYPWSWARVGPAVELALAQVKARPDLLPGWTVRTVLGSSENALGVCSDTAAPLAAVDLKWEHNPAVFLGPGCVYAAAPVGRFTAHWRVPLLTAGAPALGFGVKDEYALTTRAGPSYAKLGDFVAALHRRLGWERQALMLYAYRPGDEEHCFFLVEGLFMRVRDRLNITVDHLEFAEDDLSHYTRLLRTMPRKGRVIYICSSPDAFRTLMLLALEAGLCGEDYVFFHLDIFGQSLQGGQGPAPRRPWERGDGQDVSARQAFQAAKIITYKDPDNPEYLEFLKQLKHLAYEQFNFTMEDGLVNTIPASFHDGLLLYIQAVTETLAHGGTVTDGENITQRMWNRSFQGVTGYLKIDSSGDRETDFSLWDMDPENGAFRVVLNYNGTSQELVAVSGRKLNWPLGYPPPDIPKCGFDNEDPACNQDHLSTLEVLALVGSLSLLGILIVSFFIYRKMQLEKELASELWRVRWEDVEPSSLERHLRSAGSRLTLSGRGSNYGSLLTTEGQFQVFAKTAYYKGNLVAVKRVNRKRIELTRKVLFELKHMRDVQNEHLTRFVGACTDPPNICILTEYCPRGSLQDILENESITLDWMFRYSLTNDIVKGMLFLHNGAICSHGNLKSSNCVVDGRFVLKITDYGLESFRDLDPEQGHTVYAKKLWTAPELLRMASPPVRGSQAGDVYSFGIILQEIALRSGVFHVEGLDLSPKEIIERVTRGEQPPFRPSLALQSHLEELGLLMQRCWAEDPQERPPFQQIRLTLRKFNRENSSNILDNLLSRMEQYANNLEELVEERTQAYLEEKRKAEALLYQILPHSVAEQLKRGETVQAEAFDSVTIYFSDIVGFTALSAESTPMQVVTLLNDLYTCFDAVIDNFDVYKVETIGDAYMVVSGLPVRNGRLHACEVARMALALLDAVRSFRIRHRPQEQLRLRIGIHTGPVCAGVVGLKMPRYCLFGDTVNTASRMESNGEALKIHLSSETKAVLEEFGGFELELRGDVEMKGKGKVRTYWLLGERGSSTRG
Procedure: For in vitro studies, five MANP variants were generated that contained substitutions within the N-terminal region. HEK293 cells overexpressing pGC-A were stimulated with MANP or the five variants (10^−8 M), and intracellular cGMP generation was measured.
(§1) Additional in vitro experiments were conducted using an MANP variant having a tryptophan substitution for the leucine at position 2 of MANP (SWLRRSSCFGGRMDRI GAQSGLGCNSFRYRITA REDKQGWA; SEQ ID NO:15). Human pGC-A and pGC-B cDNA clones were purchased from Origene (Rockville, Md.). HEK293 cells were stably transfected with pGC-A or pGC-B cDNA using LIPOFECTAMINE® (Invitrogen; Grand Island, N.Y.). Transfected cells were maintained in Dulbecco's modified Eagle's medium supplemented with 10% fetal bovine serum, 100 U/ml penicillin, 100 […], and 250 ug/ml G418, and were plated in 6-well plates. pGC-A-transfected cells were treated with MANP or MANP2W, while pGC-B-transfected cells were treated with CNP or MANP2W. Cells were incubated in Hank's balanced salt solution (Invitrogen; Carlsbad, Calif.) containing 20 mmol/LN42-hydroxyethyllpiperazine-N′[2-ethanesulfonic acid], 0.1% bovine serum albumin, and 0.5 mmol/L 3-isobutyl-1-methylzanthine (Sigma; St. Louis, Mo.). Treated cells received 10^−6 M, 10^−8 M, or 10^−10 M of MANP, CNP, or MANP2W peptide for 10 minutes. […]

pGC-B = target: T2, pGC-B (Homo sapiens, UniProt P20594); test: cGMP generation in HEK293 cells overexpressing pGC-B; type: cell-based; details: 10^−6 M, 10^−8 M, or 10^−10 M peptide for 10 minutes, FIG. 7B
T2 construct: host or cells: HEK293
T2 sequence (P20594 23-1047): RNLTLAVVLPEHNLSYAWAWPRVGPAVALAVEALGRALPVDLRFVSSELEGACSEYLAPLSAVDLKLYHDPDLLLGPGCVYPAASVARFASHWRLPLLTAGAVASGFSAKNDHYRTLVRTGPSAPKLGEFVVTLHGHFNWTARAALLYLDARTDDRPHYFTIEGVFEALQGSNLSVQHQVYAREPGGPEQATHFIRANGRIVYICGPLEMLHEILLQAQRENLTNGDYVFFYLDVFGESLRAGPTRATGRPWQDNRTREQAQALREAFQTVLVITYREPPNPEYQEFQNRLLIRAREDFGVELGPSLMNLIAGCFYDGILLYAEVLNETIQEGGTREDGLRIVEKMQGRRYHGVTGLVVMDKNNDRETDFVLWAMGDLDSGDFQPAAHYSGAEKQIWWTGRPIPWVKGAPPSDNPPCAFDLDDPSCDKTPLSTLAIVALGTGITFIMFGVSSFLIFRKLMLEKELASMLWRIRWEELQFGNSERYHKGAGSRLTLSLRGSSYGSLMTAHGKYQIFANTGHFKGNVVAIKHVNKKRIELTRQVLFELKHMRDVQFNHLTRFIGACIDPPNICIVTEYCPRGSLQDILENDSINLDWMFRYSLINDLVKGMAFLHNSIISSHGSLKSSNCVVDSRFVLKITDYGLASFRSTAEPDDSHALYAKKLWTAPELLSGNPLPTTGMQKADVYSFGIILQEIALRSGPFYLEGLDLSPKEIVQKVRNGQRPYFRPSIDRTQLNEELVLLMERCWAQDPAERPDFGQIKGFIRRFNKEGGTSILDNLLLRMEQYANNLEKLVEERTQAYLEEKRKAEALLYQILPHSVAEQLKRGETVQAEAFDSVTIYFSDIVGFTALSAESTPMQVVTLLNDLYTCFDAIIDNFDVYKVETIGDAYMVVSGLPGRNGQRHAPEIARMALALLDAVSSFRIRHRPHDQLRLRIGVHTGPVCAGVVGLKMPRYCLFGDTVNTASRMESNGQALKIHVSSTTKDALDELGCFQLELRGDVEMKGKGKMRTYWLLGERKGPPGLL
Procedure: as §1, with “minutes. After treatment, the cells were lysed in 300 ul 6% ice cold TCA and sonicated for 10 minutes, and the cell lysates were then centrifuged at 4° C., 12,000 g for 10 minutes.” for “minutes.”

[2] = infusion of a high dose, compared to high dose of ANP

## SLRRSSCFGGRMDRIGAQSGLGCNSFRY (listed as Homo sapiens) [ANP, endogenous human mature atrial natriuretic peptide]
Normal dogs; infusion of a low dose
  glomerular filtration rate (GFR): No change
  mean arterial pressure (MAP): No change

## SLRRSSCFGGRMDRIGAQSGLGCNSFRYRITAREDKQGWA (listed as Homo sapiens) [MANP]
[1]; FIG. 2A
  BP (mean arterial pressure): reduced BP
[1]; FIG. 2B
  plasma cGMP generation: increased
[1]; FIG. 2C
  urinary cGMP generation: increased
[1]; FIGS. 2D and 2E
  natriuresis (distal tubule sodium reabsorption, urinary sodium excretion): induced natriuresis
Normal dogs
  diuretic and natriuretic effects compared with ANP: greater diuretic and natriuretic effects than ANP
Normal dogs; [2]
  glomerular filtration rate (GFR): increased GFR
  mean arterial pressure (MAP): decreased MAP
Normal dogs; infusion of a low dose
  glomerular filtration rate (GFR): No change
  mean arterial pressure (MAP): No change
Normal dogs; low dose
  effect on renal blood flow compared with ANP: greater effect than low dose ANP

## SLRRSSDformCFGGRMDRIGAQSGLGCNSFRYRITAREDKQGWA (SLRRS[dS]CFGGRMDRIGAQSGLGCNSFRYRITAREDKQGWA; disulfide 7-23 (inferred)) [MANP18, MANP with D-serine at the sixth position]
Normal canine; 33 pmol peptide/kg/min infused 45 minutes, FIG. 5A
  blood pressure (mean arterial pressure): blood pressure lowering
Normal canine; 33 pmol peptide/kg/min infused 45 minutes, FIG. 5D
  cardiac output: cardiac output enhancing
Normal canine; 33 pmol peptide/kg/min infused 45 minutes, FIG. 5G
  natriuretic action (urinary sodium excretion): natriuretic actions
Normal canine; 33 pmol peptide/kg/min, FIG. 6E
  plasma aldosterone levels: temporarily depressed
Normal canine; 33 pmol peptide/kg/min, FIG. 6F
  plasma renin activity (PRA): temporarily depressed
Normal canine; 33 pmol peptide/kg/min, FIG. 6G
  plasma angiotensin II levels (ANGII): temporarily depressed
Normal canine; 33 pmol peptide/kg/min, FIGS. 6A and 6B
  cGMP (plasma cGMP levels, urinary cGMP excretion): activated cGMP
Normal canine; 33 pmol peptide/kg/min, FIGS. 6C and 6D
  ANP levels (plasma ANP, urinary ANP excretion): temporarily increased
pGC-A; intracellular cGMP generation, peptide 10^−8 M, HEK293 overexpressing pGC-A
  Potency vs. MANP: =

## SWLRRSSCFGGRMDRI GAQSGLGCNSFRYRITA REDKQGWA (SWLRRSSCFGGRMDRIGAQSGLGCNSFRYRITAREDKQGWA) [MANP2W, MANP variant having a tryptophan substitution for the leucine at position 2 of MANP]
pGC-A; 10^−6 M, 10^−8 M, or 10^−10 M peptide for 10 minutes, FIG. 7A
  pGC-A activation (cGMP generation): selectively activated pGC-A
pGC-B
  pGC-B activation (cGMP generation): did not activate pGC-B
